# Numbered stars: 1 amine (or outer) side, 2 acyl side, 3 side chain; on linkers, the order of the positions; unused ones are H or OH. Bridge positions count the residues as written; N and C are the ends. Square brackets hold non-standard residues; d marks the D form. Peptide text beside a SMILES is read from it. Ala(Nα-(CH2)3CO) = C[C@@H](C(=O)[*:2])N(CCCC(=O)[*:3])[*:1]; Ala(Nα-(CH2)3NH) = C[C@@H](C(=O)[*:2])N(CCCN[*:3])[*:1]
# What was measured:
# [1] = test system: IL-6 mediated acute-phase response; assay: IL-6 mediated acute-phase response (turpentine model); assay type: in vivo, mice
# Excerpt: The objective was to establish a simple first-line in-vivo model, for testing the activity of IL-6 inhibitors. The turpentine model was chosen based on the principal role that IL-6 plays in this inflammatory response.
# Systemic and localized inflammation elicit a general reaction in the organism, known as the acute phase response, which includes fever, loss of body weight, hypoglycemia, and changes in the serum levels of several plasma proteins produced by the liver. IL-6 is an important mediator of the acute-phase reaction (see Heinrich et.al., Biochemistry J. 1 265:621, 1990 for a comprehensive review), together with IL-1 and TNF-α. It has been shown previously that sterile tissue damage caused by injection of turpentine induces an acute-phase reaction, and that IL-6 is an essential mediator of this response (Rokita et.al., Cytokine 5:454, 1993).
# IL-6 knock-out (-/-) and matched wild-type (C57/Black; CB) mice were used. Sterile tissue damage was induced by subcutaneous injection of turpentine, 0.1 ml, into both hind limbs. IL-6 was determined in the serum by ELISA (QuantikineM, R&D). For liver acute-phase proteins, Fibrinogen was determined in citrated plasma, by the calcium method.
# PTR 5045 (SEQ ID NO:75) was tested in this model in compare to the non-relevant control peptide PTR 4041 (SEQ ID NO:33) (Lys-GlyC2-Leu-Ile-Gln-Leu-Phe-GlyN3-Lys-Lys-NH2).
# [2] = Metabolic stability in vitro against renal homogenate; assay type: in vitro ADME
# Description: The special feature of the novel backbone cyclic peptide analogs is their metabolic stability as tested in vitro against degradation of the most aggressive enzyme mixture in the body (e.g., renal homogenate). PTR 5045 is stable under these conditions for up to 24 hours.
# B16.F10.9 melanoma cells = details: 200 ng/ml IL-6 and 125 ng/ml sIL-6R, three days, FIG. 2
# Description: The F10.9 sub-line of B16 (murine melanoma) expresses gp130 but not IL-6R. Addition of human IL-6 and human IL-6R, or a chimera of IL-6/IL-6R results in differentiation which is associated with growth arrest of the cells. Inhibition of IL-6 results in continued growth. Since the end point of this assay is cell growth rather than cell death, this assay system was used primarily in order to differentiate between suspected toxic effects observed on B9 or T1165 cells, and true inhibition of IL-6 activity.
# Evaluation of the results in this assay is possible using two methods. One method uses vital dyes for monitoring cell growth. The second method comprises visual observation of the cell morphology and establishing a cut off point based on the following observations:
# Cells which are not treated with IL-6 create a monolayer that covers almost all the surface area. Treatment with IL-6 causes growth arrest and a morphological change: the cells become very narrow and elongated as compared to the more spread out shape of the non-treated cells.
# Peptides were added to B16.F10.9 melanoma cells in the presence of 200 ng/ml IL-6 and 125 ng/ml sIL-6R. Incubation for three days.
# [3] = mice, turpentine, 1 or 10 mg/kg of peptide
smiles,measurement,setting,value
"CC(C)C[C@@H]1NC(=O)[C@H](C)N(C(=O)[C@H](Cc2ccccc2)NC(=O)[C@@H](CCCNC(=N)N)NC(=O)[C@H](CCCCN)NC(=O)[C@H](CCCNC(=N)N)NC(=O)[C@@H](N)Cc2c[nH]c3ccccc23)CCCC(=O)NCCCN([C@@H](C)C(N)=O)C(=O)[C@@H](Cc2ccc(O)cc2)NC(=O)[C@H](CCCNC(=N)N)NC1=O [PTR 5045, Trp-Arg-Lys-(D)Arg-Phe-AlaC3-Leu-Arg-(D)Tyr-AlaN3-NH2] (H-WRK[dR]F[Ala(Nα-(CH2)3CO)]LR[dY][Ala(Nα-(CH2)3NH)]-NH2; lactam 6-10)",Mean weight loss %,[1]; [3],−3.93%
same,Mean weight loss grams,[1]; [3],−1.35 grams
same,reduction of the effect mediated by IL-6 on body weight during acute inflammation,[1]; versus control peptide PTR 4041,reduces by about half
same,time stable against degradation by renal homogenate,[2],up to 24 hours
same,concentration that fully blocks IL-6 activity,B16.F10.9 melanoma cells,about 250 nM
